The source of these data is ChEMBL document CHEMBL2074091, “Transport of methotrexate, methotrexate polyglutamates, and 17beta-estradiol 17-(beta-D-glucuronide) by ABCG2: effects of acquired mutations at R482 on methotrexate transport” (Cancer Res, 2003).

Common to all, as to type: functional, cell membranes
The target of one series is T1, ABCG2 (R482) (Homo sapiens, UniProt Q9UNQ0).
T1 sequence (Q9UNQ0 whole entry): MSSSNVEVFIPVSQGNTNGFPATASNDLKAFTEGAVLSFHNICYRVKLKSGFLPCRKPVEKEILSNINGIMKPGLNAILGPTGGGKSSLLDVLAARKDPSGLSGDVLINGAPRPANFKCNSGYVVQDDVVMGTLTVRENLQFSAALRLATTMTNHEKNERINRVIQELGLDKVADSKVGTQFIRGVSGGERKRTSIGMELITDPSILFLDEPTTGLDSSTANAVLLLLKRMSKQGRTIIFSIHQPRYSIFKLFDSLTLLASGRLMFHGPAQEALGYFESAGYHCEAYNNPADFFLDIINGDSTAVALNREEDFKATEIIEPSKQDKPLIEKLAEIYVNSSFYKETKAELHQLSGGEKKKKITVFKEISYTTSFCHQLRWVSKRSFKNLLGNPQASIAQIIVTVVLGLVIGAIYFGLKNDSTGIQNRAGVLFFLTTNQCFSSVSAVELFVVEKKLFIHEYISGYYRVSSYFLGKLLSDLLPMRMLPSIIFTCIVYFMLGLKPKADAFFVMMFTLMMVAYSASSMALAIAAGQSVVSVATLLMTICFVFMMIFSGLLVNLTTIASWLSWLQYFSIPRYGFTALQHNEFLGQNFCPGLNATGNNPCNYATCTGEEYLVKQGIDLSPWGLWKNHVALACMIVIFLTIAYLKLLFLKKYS
Nature of the series: (§1) TP_TRANSPORTER: uptake (vesicle) in membrane vesicle from ABCG2-R482-expressing HEK293 cells. The settings on record: membrane vesicles from ABCG2-R482-expressing HEK293 cells.

Series [1] has as its target T2, Broad substrate specificity ATP-binding cassette transporter ABCG2 (Homo sapiens, UniProt Q9UNQ0).
T2 sequence (Q9UNQ0 whole entry): T1 sequence (Q9UNQ0 whole entry)
The series is described as §1. Particulars: hek293.

Series [2] addresses ATP-binding cassette sub-family C member 2 (Homo sapiens, UniProt Q92887). In words: TP_TRANSPORTER: uptake (vesicle) in membrane vesicle from MRP2-expressing HEK293 cells.
Series [3] has as its target Multidrug resistance associated protein (Homo sapiens) (UniProt Q96QA9). In words: TP_TRANSPORTER: uptake (vesicle) in membrane vesicles from MRP3-expressing HEK293 cells.

Multidrug resistance associated protein (Homo sapiens), sequence (Q96QA9 as listed by the source): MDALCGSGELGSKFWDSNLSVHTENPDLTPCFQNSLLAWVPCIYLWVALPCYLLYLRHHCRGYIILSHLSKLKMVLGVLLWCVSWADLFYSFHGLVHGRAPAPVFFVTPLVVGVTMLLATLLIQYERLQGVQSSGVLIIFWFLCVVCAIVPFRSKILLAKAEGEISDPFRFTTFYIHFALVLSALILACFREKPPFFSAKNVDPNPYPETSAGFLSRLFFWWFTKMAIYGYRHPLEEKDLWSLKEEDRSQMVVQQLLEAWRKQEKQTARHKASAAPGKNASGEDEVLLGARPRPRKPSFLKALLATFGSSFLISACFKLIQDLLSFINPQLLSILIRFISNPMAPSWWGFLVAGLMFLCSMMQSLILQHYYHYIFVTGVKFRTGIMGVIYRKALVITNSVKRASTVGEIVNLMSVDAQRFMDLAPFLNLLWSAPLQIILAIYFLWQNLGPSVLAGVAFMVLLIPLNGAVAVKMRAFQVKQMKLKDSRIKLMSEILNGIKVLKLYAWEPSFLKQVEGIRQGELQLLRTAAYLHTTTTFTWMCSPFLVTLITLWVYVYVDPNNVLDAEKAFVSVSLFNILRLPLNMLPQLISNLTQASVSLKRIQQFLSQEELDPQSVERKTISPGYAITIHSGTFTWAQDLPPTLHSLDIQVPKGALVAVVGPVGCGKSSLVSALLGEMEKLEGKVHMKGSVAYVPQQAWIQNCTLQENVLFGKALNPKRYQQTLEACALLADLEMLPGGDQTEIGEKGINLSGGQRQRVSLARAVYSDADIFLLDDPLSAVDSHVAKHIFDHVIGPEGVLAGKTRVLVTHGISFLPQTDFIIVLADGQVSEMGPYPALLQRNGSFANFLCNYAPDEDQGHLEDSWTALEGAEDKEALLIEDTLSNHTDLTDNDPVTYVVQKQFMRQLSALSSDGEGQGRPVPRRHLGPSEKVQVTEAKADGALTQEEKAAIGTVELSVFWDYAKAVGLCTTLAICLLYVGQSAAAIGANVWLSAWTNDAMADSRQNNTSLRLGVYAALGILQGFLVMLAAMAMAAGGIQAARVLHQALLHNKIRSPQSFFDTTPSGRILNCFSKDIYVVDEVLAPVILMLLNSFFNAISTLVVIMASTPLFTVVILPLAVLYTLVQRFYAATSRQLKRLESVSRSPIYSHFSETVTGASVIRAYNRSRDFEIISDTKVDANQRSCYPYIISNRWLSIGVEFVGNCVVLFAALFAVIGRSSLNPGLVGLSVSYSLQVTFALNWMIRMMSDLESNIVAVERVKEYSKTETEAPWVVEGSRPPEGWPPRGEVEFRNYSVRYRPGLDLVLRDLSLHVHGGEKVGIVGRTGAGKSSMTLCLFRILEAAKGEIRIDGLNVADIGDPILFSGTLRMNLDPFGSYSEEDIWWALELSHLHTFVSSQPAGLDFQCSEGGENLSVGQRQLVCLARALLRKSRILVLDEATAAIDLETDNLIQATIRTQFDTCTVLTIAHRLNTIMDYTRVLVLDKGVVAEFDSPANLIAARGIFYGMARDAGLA
ATP-binding cassette sub-family C member 2, sequence (Q92887 whole entry): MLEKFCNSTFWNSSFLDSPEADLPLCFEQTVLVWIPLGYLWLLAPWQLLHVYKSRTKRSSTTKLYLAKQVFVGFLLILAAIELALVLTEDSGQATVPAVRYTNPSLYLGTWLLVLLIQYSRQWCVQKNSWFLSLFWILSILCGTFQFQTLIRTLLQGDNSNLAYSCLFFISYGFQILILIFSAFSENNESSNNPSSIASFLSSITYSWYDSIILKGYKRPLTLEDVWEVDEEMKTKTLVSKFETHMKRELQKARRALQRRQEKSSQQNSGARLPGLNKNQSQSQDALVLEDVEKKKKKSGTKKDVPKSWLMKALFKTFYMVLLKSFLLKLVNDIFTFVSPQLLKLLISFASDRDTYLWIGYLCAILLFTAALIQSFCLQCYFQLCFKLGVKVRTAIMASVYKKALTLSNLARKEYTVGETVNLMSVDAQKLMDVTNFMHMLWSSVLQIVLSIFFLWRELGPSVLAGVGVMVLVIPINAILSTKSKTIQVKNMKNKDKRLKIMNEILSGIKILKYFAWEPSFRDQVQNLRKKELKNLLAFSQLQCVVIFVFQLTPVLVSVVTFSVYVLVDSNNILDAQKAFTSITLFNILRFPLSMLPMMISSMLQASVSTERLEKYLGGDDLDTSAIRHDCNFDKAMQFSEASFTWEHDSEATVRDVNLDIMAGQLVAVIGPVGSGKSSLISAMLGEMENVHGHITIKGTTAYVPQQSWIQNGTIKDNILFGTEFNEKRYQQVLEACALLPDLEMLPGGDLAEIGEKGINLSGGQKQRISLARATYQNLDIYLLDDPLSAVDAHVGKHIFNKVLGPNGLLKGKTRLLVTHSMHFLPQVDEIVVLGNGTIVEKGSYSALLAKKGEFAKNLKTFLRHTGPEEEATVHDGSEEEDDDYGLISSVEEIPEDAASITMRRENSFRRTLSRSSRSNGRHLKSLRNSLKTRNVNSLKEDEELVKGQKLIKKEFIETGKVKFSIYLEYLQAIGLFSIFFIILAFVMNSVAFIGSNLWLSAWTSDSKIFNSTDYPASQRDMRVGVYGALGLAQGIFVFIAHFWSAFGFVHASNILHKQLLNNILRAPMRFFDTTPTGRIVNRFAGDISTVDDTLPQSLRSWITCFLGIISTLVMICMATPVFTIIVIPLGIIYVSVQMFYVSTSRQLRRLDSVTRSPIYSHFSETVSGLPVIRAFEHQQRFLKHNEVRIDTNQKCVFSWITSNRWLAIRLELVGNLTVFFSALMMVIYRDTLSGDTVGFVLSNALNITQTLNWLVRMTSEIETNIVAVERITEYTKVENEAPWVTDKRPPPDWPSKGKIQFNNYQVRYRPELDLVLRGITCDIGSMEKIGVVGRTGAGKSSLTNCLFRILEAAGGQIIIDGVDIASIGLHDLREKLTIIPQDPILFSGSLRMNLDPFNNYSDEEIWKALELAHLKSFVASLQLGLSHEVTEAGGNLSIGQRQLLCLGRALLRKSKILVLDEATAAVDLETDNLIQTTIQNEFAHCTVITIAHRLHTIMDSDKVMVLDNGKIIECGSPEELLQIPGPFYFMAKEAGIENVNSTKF

By Km is commonly meant the substrate concentration at which the rate is half of its maximum. For `CN(Cc1cnc2nc(N)nc(N)c2n1)c1ccc(C(=O)N[C@@H](CCC(=O)O)C(=O)O)cc1` [METHOTREXATE], the Km at ABCG2 (R482) stood at 1300 µM. Consider `CN(Cc1cnc2nc(N)nc(N)c2n1)c1ccc(C(=O)N[C@@H](CCC(=O)N[C@@H](CCC(=O)N[C@@H](CCC(=O)N[C@@H](CCC(=O)O)C(=O)O)C(=O)O)C(=O)O)C(=O)O)cc1`, for which the Activity entry in series [1] is “substrate []”. On to `Nc1nc2c(c(=O)[nH]1)N(C=O)C(CNc1ccc(C(=O)N[C@@H](CCC(=O)O)C(=O)O)cc1)CN2` (some centres not stated) [LEUCOVORIN], for which the Activity result in series [2] is “substrate []”. `Nc1nc2ncc(CNc3ccc(C(=O)N[C@@H](CCC(=O)O)C(=O)O)cc3)nc2c(=O)[nH]1` [FOLIC ACID]: in series [1], the Activity result was “substrate []”. Still for that read-out and setting: in the case of `C[C@]12CC[C@@H]3c4ccc(O)cc4CC[C@H]3[C@@H]1CC[C@@H]2O[C@@H]1O[C@H](C(=O)O)[C@@H](O)[C@H](O)[C@H]1O` [ESTRADIOL 17B GLUCURONIDE] it was “substrate []”. `Nc1nc(=O)c2c([nH]1)NCC(CNc1ccc(C(=O)N[C@@H](CCC(=O)O)C(=O)O)cc1)N2C=O` (some centres not stated): the Activity entry in series [3] is “substrate []”. On to `CN(Cc1cnc2nc(N)nc(N)c2n1)c1ccc(C(=O)N[C@@H](CCC(=O)N[C@@H](CCC(=O)N[C@@H](CCC(=O)O)C(=O)O)C(=O)O)C(=O)O)cc1`, for which, in series [1], the Activity entry is “substrate []”.
